# Patent publication US7378237B2, “Development of method for screening physiologically active pyrrole imidazole derivative” (Japan Science & Technology Corporation, priority 1999, dated 2008)
# Tested on: double-stranded DNA
# Experiment: Alkylation and cleavage of double-stranded DNA by ImPyLDu86 (gel, cleavage bands by heating)
# Type: biochemical
# Details: cleavage mainly at site 1 and site 2, bands after heating, FIG. 1
# Description: Reactivities of thus synthesized PyPyLDu86 and ImPyLDu86 with DNA were determined.
# Locations of alkylation can be observed as cleavage bands by heating. As a result, the double-stranded DNA was cleaved mainly at the site 1 and the site 2 from a low concentration, and it was understood that the alkylation occurred simultaneously in the double-stranded DNA. No compound to generate such a cleavage has been known until now, and it can be surely regarded as an artificial restriction enzyme.
compound,measurement,value
COC(=O)c1c(C)[nH]c2c1C13CC1CN(C(=O)/C=C/c1cc(NC(=O)c4nc(NC(C)=O)cn4C)cn1C)C3=CC2=O (stereo not shown) [ImPyLDu86],ratio of cleavage of double-stranded DNA,70%
